Experimental data reported in patent publication US20210290680A1, “METHODS AND COMPOSITIONS FOR MODULATING CELLULAR AGING” (Dorian Therapeutics, Inc., priority 2019, published 2021).

Columns and labels:
[1] = test system: USP16; experiment: qPCR of USP16 expression; assay type: cell-based, human; conditions: for downregulation of USP16 (Ctrl vs shRNA): primary T cells, day 15
Text: A new set of shRNAs were cloned into the pSIH backbone, where the shRNA expression is driven by the H1 promoter. The vector was also engineered to co-express GFP and Puromycin resistance through a T2A sequence. The new shRNA sequences were: shUSP16 #1 5′-[…]-3′ (SEQ ID NO: 8) and shUSP16 #2 5′-[…]-3′ (SEQ ID NO: 9). Primary T cells were activated as described (Example 3), transduced with a lentivirus encoding either a shUSP16 #1, shUSP16 #2 or a scrambled shRNA (Control) and cells were selected with puromycin at day 6. Between 1 and 1.25×10^6 cells were plated post-puromycin selection with a purity higher than 90% and counted every 2-4 days by Trypan Blue exclusion using Vi-CELL XR cell counter (Beckman Coulter). qPCR was performed to verify downregulation of USP16 expression (FIG. 14A) and the expression of the senescent marker CDKN1A (FIG. 14B) at day 15. Proliferation was measured as fold increased compared to shControl at day 15 post-activation. The experiment was repeated using primary T cells obtained from buffy coats of 3 different healthy donors.
Primary T cells were activated as described (Example 3). At Day 6 post-activation, dynabeads were removed and T cells electroporated using the Neon Transfection System (ThermoFisher) with a 2.5:1 ratio sgRNA:Cas9. The experiment was performed following the protocol optimized for primary T cell by Synthego (CRISPR Editing Human Primary CD4+ T cells with RNPs using Neon Electroporation Protocol, 2018 version). The sgRNA used are the following: gUSP16 #1 5′-[…]-3′ (SEQ ID NO: 10) and gSynthego that comprises 3 different sgRNAs (gRNA-A: 5′-[…] 3′ (SEQ ID NO: 11); gRNA-B: 5′-[…]-3′ (SEQ ID NO: 12); gRNA-C: 5′-[…]-3′ (SEQ ID NO: 13)). Control T cells, identified as Mock, were electroporated but no Cas9:sgRNA mixture was added. […] At day 15 post-activation, cells were stained for CD4-PE, CD8-BV510, CD62L-Allophycocyanin and CD45RA-APC-Cy7 (Biolegend). Stem cell memory T cells (Tscm) were identified as Sytox^−GFP^+CD45RA^+CD62L^+ and graphed as ratio compared to mock cells (FIG. 22). The experiment was repeated using primary T cells obtained from buffy coats of 2 different healthy donors.
Primary T cells were activated as described (Example 3), transduced with a lentivirus encoding for either a CD19.CAR or a GD2.CAR co-expressing shUSP16 #1, shUSP16 #2 or a scrambled shRNA (Control). Cells were cultured in IL-2 and sorted between days 6-13 for EGFRt. Cells were plated post-sorting with a purity higher than 85% and counted every 2-4 days by Trypan Blue exclusion using Vi-CELL XR cell counter. Fifteen days post-activation both CD19.CAR and GD2.CAR T cells were collected, and qPCR was performed to verify downregulation of USP16 expression (FIG. 24) (fold change GD2.CAR (n=3): Control vs shUSP #1: 0.35, p<0.0001, and Control vs shUSP16 #2: 0.2452, p<0.0001, fold change CD19.CAR (n=4): Control vs shUSP #1: 0.2891, p<0.0001, and Control vs shUSP16 #2: 0.2566, p<0.0001). Proliferation was measured as fold increase compared to control cells at day 15 (FIG. 25).

[2] = test system: CHLA-55 cells; experiment: Re-challenge cytotoxicity assay, GD2.CAR T cells; assay type: cell-based, human; conditions: after double tumor-challenge, n=3
Method: Primary T cells were activated as described (Example 3), transduced with a lentivirus encoding for either a CD19.CAR or a GD2.CAR co-expressing shUSP16 #1, shUSP16 #2 or a scrambled shRNA (Control). Cells were cultured in IL-2 and sorted between days 6-13 for EGFRt. At day 16 cytotoxicity assays were performed. Briefly, cells were counted and 100,000 T cells (adjusted for EGFR expression) were plated at 1:5 Effector:Target (E:T) ratio. At 72 hours, the mixture of tumor cells and T cells were collected, stained for CD3-PE, CD8-BV510, CD19- or GD2-APC, EGFR-AF488 and Sytox and counted by flow cytometry (MACSQuant, Miltenyi Biotec) (FIGS. 30A and 30B). Counting beads (CountBright Absolute Counting beads, Invitrogen) were added before acquisition and absolute number was calculated as following (number of cell events/number of bead events)×(assigned bead count of the lot (beads/50 ul)/volume of sample (ul))=concentration of sample as cells/ul). NALM cells were used as target cells for CD19.CAR T cells and CHLA-55 cells were used as target for GD2.CAR T cells. Three different primary T cell cultures were tested for CD19 and GD2 CAR.
At day 16, regular cytotoxicity assays were also performed (Example 22). Three days post-antigen stimulation, CD19.CAR T cells were stained for EGFR-AF488 (R&D), CD3-PE, CD8-BV510, PD-1-Allophycocyanin and Lag-3 and CTLA4 (Biolegend) and acquired by MACSQuant (Miltenyi Biotec). The co-cultures we also re-challenged with the addition of fresh tumor cells. T cell killing and expansion upon double tumor-challenge was assessed after three days.

Substance: shUSP16 #1: shRNA targeting USP16, 5′-GACTGTAAGACTGACAATAAA-3′ (SEQ ID NO: 8), pSIH backbone or co-expressed in CAR plasmid
- USP16 expression, fold change vs Control ([1]; CD19.CAR T cells, day 15, n=4): 0.2891
- USP16 expression, fold change vs Control ([1]; GD2.CAR T cells, day 15, n=3): 0.35
- downregulation of USP16 (Ctrl vs shRNA) [1]: 56%
- CHLA-55 residual cells [2]: 436500
- T cell number [2]: 404709

Substance: shUSP16 #2: shRNA targeting USP16, 5′-TATATCAGTTCACCCGTAAT-3′ (SEQ ID NO: 9), pSIH backbone or co-expressed in CAR plasmid
- USP16 expression, fold change vs Control ([1]; CD19.CAR T cells, day 15, n=4): 0.2566
- USP16 expression, fold change vs Control ([1]; GD2.CAR T cells, day 15, n=3): 0.2452
- downregulation of USP16 (Ctrl vs shRNA) [1]: 53%
- CHLA-55 residual cells [2]: 330610
- T cell number [2]: 722634
